Data as given in ChEMBL document CHEMBL1201862, “PubChem BioAssay data set” (2004).
Values belong to the compound of their own block, whether it stands above or below them. Calls of active or inactive are those of the source.

Tests used:
[1] = biological target: T1, Low molecular weight phosphotyrosine protein phosphatase (Homo sapiens, UniProt P24666); assay: LMPTP phosphatase inhibitors, dose response, biochemical, OMFP substrate, fluorescence intensity, set 2 (AID 743307); type: functional
T1 sequence (P24666 whole entry): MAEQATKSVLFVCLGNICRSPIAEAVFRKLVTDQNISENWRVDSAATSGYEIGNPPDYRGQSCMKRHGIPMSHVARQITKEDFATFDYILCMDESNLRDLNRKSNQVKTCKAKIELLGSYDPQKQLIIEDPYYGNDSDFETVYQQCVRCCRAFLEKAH

[2] = biological target: T1, Low molecular weight phosphotyrosine protein phosphatase; assay: LMPTP phosphatase inhibitors, colorimetric pNPP readout, dose response, orthogonal assay, biochemical, absorbance, pNPP substrate, LMPTP-A isoform, set 2 (AID 743308); type: functional
[3] = biological target: T2, NAD-dependent protein deacylase sirtuin-5, mitochondrial (Homo sapiens, UniProt Q9NXA8); assay: SIRT5 desuccinylase inhibitors, dose response, biochemical, fluorescence imaging, cherry-pick, set 5 (AID 720591);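 also: desuccinylation of succinyl peptide AMC substrate read as fluorescence after trypsin release; potency of inhibitors that lower fluorescence and may act on trypsin instead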
[4] = biological target: G-protein coupled receptor 183 (Homo sapiens, UniProt P32249); assay: SAR confirmation of small molecule antagonists of the EBI2 receptor via a luminescent beta-arrestin assa.; type: functional
[5] = tested on: Streptococcus sp. 'group A'; assay: growth inhibition of control SK(-) GAS strain, dose response, counter-screen for streptokinase expression inhibitor project, luminescence, kanamycin, BacTiterGlo, confirmation (AID 1900); type: functional, organism-based
[6] = inhibitors of intracellular T. cruzi replication, confirmation, NIH3T3 host cells, beta-gal luminescence (AID 2044); type: functional, cell-based;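 also: intracellular parasites grown in NIH/3T3 mouse fibroblasts as host cells; luminescent beta-galactosidase reporter signal from transgenic T. cruzi replicating inside host cells; inhibitors lower the luminescence signal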
[7] = cytotoxicity toward NIH3T3 fibroblasts, dose response, counter-screen, cell-based, ATP luminescence, mouse fibroblasts (AID 2010); type: functional;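 also: cells exposed to compound for about 90 hours before reading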
Streptococcus = assay: Group A Streptococcus viability loss, dose response, counter-screen for streptokinase expression inhibitor project, luminescence, BacTiterGlo (AID 1915); type: functional, organism-based;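 also: potency for reduction of bacterial viability or growth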
[8] = Vero cell cytotoxicity, dose response, cytotoxicity control for Vif-APOBEC3G degradation inhibitor project, Vero cells (AID 1117358); type: functional; details: Human immunodeficiency virus 1, Vero
[9] = HeLa 2N DNA content increase, dose response, cell-based, IC50 (AID 1117349); type: functional
[10] = Concentration-dependent survival of SW480 colon cancer line, luminescence detection with CellTiter-Glo, half-maximal inhibitory concentration (AID 1117338); type: functional
[11] = RKO cell viability reduction, dose response, CellTiter-Glo luminescence (AID 1117322); type: functional
[12] = cytotoxicity toward HCT116 cells – cell-based, CellTiter-Glo luminescence, IC50, dose response (AID 1117332); type: functional; details: HCT-116
[13] = SNU-C1 cell viability reduction, dose response, CellTiter-Glo luminescence (AID 1117323); type: functional, cell-based
[14] = cytotoxicity toward Colo320 cells – cell-based, CellTiter-Glo luminescence, IC50, dose response (AID 1117334); type: functional; details: COLO 320
[15] = HeLa 4N DNA content increase, dose response, cell-based, IC50 (AID 1117351); type: functional
[16] = cytotoxicity toward HT-29 cells – cell-based, CellTiter-Glo luminescence, IC50, dose response (AID 1117330); type: functional
[17] = CellTiter-Glo luminescent dose response of DLD-1 viability loss (AID 1117352); type: functional
[18] = HCT116 cell viability decrease, GSK3B pretreatment – CellTiter-Glo, IC50, dose response (AID 1117339); type: functional; details: HCT-116
[19] = biological target: T2, NAD-dependent protein deacylase sirtuin-5, mitochondrial; assay: SIRT5 deacylase inhibitors, dose response, biochemical, fluorescence imaging, cherry-pick, set 6 (AID 720597)
[20] = biological target: T1, Low molecular weight phosphotyrosine protein phosphatase; type: functional; details: read-out: IC50_Mean
[21] = Artemis endonuclease inhibitor potency, dose response, biochemical, fluorescence intensity (AID 720701); type: functional;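 also: Artemis endonuclease enzyme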
[22] = biological target: E3 ubiquitin-protein ligase Mdm2 (Homo sapiens, UniProt Q00987); assay: enhancers of MDM2-luciferase reporter signal, concentration-effect titration, project on inhibitors of MDM2 ubiquitin ligase, cellular assay, luminescent readout, 384-well plate format (AID 1394); type: functional;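 also: MDM2 E3 inhibitors raise luminescence so EC50 is for signal enhancement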
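For IC50 Mean in this document: Dose-response confirmation assay measuring inhibition of LMPTP enzyme activity by fluorescence intensity read-out.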

T2 sequence (Q9NXA8 whole entry): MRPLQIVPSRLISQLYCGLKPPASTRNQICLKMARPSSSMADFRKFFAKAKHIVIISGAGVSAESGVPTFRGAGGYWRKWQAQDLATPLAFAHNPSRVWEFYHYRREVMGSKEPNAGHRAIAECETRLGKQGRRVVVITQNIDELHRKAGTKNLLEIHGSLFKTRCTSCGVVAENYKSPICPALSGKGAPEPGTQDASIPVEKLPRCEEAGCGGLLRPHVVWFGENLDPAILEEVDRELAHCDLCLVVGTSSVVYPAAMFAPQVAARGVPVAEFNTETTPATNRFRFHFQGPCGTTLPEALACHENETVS
Sequence of G-protein coupled receptor 183 (P32249 whole entry): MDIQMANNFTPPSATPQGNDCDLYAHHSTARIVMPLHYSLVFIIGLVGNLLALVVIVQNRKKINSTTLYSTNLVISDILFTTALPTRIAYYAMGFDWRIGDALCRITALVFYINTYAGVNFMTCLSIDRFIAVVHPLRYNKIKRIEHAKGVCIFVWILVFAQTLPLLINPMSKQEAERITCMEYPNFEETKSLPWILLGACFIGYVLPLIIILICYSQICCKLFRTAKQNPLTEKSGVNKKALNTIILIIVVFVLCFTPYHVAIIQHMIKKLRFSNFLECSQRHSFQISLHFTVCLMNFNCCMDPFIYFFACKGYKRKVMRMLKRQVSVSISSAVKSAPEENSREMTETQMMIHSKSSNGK
Sequence of E3 ubiquitin-protein ligase Mdm2 (Q00987 whole entry): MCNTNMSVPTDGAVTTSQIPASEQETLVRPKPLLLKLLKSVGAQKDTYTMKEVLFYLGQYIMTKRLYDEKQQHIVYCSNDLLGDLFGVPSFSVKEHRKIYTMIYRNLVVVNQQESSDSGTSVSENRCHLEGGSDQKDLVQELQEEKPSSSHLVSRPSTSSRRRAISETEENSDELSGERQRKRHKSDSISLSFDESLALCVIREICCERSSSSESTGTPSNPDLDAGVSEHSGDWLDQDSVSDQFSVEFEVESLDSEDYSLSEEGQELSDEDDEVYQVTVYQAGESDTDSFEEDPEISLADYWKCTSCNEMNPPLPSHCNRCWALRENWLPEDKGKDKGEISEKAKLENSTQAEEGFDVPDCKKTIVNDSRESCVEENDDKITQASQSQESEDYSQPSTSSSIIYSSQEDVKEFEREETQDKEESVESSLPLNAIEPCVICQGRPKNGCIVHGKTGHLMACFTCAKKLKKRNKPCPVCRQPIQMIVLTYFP

Compound: O=C(Nc1nnc(C2CC2)o1)c1ccc(S(=O)(=O)N2CCCc3ccccc32)cc1
EC50 [5]: 2.46 µM (active)
EC50 [6]: 1.4 µM (active)
EC50 [7]: 5.11 µM (active)
EC50 (Streptococcus): 4 µM (active)
CC50 [8]: 15.1 µM (active)

Compound: CCC(=O)c1ccc(O)cc1 [PAROXYPROPIONE]
IC50 [9]: > 10 µM (inactive)
IC50 [10]: 4.1 µM (active)
IC50 [11]: 7.8 µM (inactive)
IC50 [12]: > 20 µM (inactive)
IC50 [13]: > 20 µM (inactive)
IC50 [14]: > 20 µM (inactive)
IC50 [15]: > 10 µM (inactive)
IC50 [16]: > 20 µM (inactive)
IC50 [17]: 6.67 µM (inactive)
IC50 [18]: 6.25 µM (inactive)

Compound: COCC(=O)N1C[C@H](C)[C@H](OC)CN(C)C(=O)c2cc(NC(=O)C3CCC3)ccc2OC[C@@H]1C
AC50 [19]: 13.2 µM (active)

Compound: COc1ccc(C(=O)NCCSC2CCCCC2)cc1
EC50 [22]: 13.6 µM (not active)

The next lines start with the values.

IC50 [1]: 23.2 µM (inactive)
IC50 [2]: > 80 µM (inactive)
Compound: CCCCNc1nc(-c2ccccc2)nc2ccccc12

AC50 [3]: > 30 µM (inactive)
Compound: O=C(Cc1nnc(NC(=O)Nc2ccc(Cl)cc2)s1)NCc1ccccc1

IC50 [4]: 0.00958 µM (active)
Compound: COc1ccc(/C=C/C(=O)N2CCN(S(=O)(=O)c3ccc(Br)cc3)CC2)cc1

IC50 [20]: 10.9 µM (active)
IC50 [21]: > 20 µM (inactive)
Compound: O=C1CC(c2ccco2)Cc2nc(Nc3nc(-c4ccccc4)c4ccccc4n3)ncc21 (stereo not drawn)
